Test results as given in US6352958B1, “Cycloimido-substituted benzofused heterocyclic herbicides” (FMC Corporation, priority 1997, dated 2002).

How the values were obtained:
Assay type in all cases: in vivo
[1] = tested on: field corn (Zea mays var. Pioneer 3732); assay: Preemergence herbicidal activity, corn; conditions: Rate of Application 0.3 Kg/Ha, examined after 12-17 days
[2] = tested on: common cocklebur (Xanthium strumarium L.); assay: Postemergence herbicidal activity, cocklebur; conditions: rate of application 0.3 Kg/Ha, rated after 12-17 days
[3] = tested on: soybean (Glycine max var. Winchester); assay: Preemergence herbicidal activity, soybean; conditions: Rate of Application 0.3 Kg/Ha, examined after 12-17 days
[4] = tested on: green foxtail (Setaria viridis); assay: Preemergence herbicidal activity, green foxtail; conditions: Rate of Application 0.3 Kg/Ha, examined after 12-17 days
[5] = tested on: field corn (Zea mays var. Pioneer 3732); assay: Postemergence herbicidal activity, corn; conditions: rate of application 0.3 Kg/Ha, rated after 12-17 days
[6] = tested on: wheat (Triticum aestivum var. Lew); assay: Preemergence herbicidal activity, wheat; conditions: Rate of Application 0.3 Kg/Ha, examined after 12-17 days
[7] = tested on: blackgrass (Aloepecurus myosuroides); assay: Preemergence herbicidal activity, blackgrass; conditions: Rate of Application 0.3 Kg/Ha, examined after 12-17 days
[8] = tested on: common chickweed (Stellaria media); assay: Postemergence herbicidal activity, chickweed; conditions: rate of application 0.3 Kg/Ha, rated after 12-17 days
[9] = tested on: green foxtail (Setaria viridis); assay: Postemergence herbicidal activity, green foxtail; conditions: rate of application 0.3 Kg/Ha, rated after 12-17 days
[10] = tested on: morningglory (Ipomea lacunosa or Ipomea hederacea); assay: Postemergence herbicidal activity, morningglory; conditions: rate of application 0.3 Kg/Ha, rated after 12-17 days
[11] = tested on: Johnsongrass (Sorghum halepense); assay: Postemergence herbicidal activity, johnsongrass; conditions: rate of application 0.3 Kg/Ha, rated after 12-17 days
[12] = tested on: common chickweed (Stellaria media); assay: Preemergence herbicidal activity, chickweed; conditions: Rate of Application 0.3 Kg/Ha, examined after 12-17 days
[13] = tested on: common cocklebur (Xanthium strumarium L.); assay: Preemergence herbicidal activity, cocklebur; conditions: Rate of Application 0.3 Kg/Ha, examined after 12-17 days
[14] = tested on: morningglory (Ipomea lacunosa or Ipomea hederacea); assay: Preemergence herbicidal activity, morningglory; conditions: Rate of Application 0.3 Kg/Ha, examined after 12-17 days
[15] = tested on: velvetleaf (Abutilon theophrasti); assay: Postemergence herbicidal activity, velvetleaf; conditions: rate of application 0.3 Kg/Ha, rated after 12-17 days
[16] = tested on: blackgrass (Aloepecurus myosuroides); assay: Postemergence herbicidal activity, blackgrass; conditions: rate of application 0.3 Kg/Ha, rated after 12-17 days
[17] = tested on: wheat (Triticum aestivum var. Lew); assay: Postemergence herbicidal activity, wheat; conditions: rate of application 0.3 Kg/Ha, rated after 12-17 days
[18] = tested on: Johnsongrass (Sorghum halepense); assay: Preemergence herbicidal activity, johnsongrass; conditions: Rate of Application 0.3 Kg/Ha, examined after 12-17 days
[19] = tested on: velvetleaf (Abutilon theophrasti); assay: Preemergence herbicidal activity, velvetleaf; conditions: Rate of Application 0.3 Kg/Ha, examined after 12-17 days
[20] = tested on: soybean (Glycine max var. Winchester); assay: Postemergence herbicidal activity, soybean; conditions: rate of application 0.3 Kg/Ha, rated after 12-17 days

Row | SMILES | PREEMERGENCE HERBICIDAL ACTIVITY (% CONTROL) CRN [1] [%] | Postemergence herbicidal activity (% control) XANPE [2] [%] | PREEMERGENCE HERBICIDAL ACTIVITY (% CONTROL) SOY [3] [%] | PREEMERGENCE HERBICIDAL ACTIVITY (% CONTROL) SETVI [4] [%] | Postemergence herbicidal activity (% control) CRN [5] [%] | PREEMERGENCE HERBICIDAL ACTIVITY (% CONTROL) WHT [6] [%] | PREEMERGENCE HERBICIDAL ACTIVITY (% CONTROL) ALOMY [7] [%] | Postemergence herbicidal activity (% control) STEME [8] [%] | Postemergence herbicidal activity (% control) SETVI [9] [%] | Postemergence herbicidal activity (% control) IPOSS [10] [%] | Postemergence herbicidal activity (% control) SORHA [11] [%] | PREEMERGENCE HERBICIDAL ACTIVITY (% CONTROL) STEME [12] [%] | PREEMERGENCE HERBICIDAL ACTIVITY (% CONTROL) XANPE [13] [%] | PREEMERGENCE HERBICIDAL ACTIVITY (% CONTROL) IPOSS [14] [%] | Postemergence herbicidal activity (% control) ABUTH [15] [%] | Postemergence herbicidal activity (% control) ALOMY [16] [%] | Postemergence herbicidal activity (% control) WHT [17] [%] | PREEMERGENCE HERBICIDAL ACTIVITY (% CONTROL) SORHA [18] [%] | PREEMERGENCE HERBICIDAL ACTIVITY (% CONTROL) ABUTH [19] [%] | Postemergence herbicidal activity (% control) SOY [20] [%]
1 | CCOC(=O)c1cc2c(-n3c(=O)cc(C(F)(F)F)n(C)c3=O)c(F)cc(Cl)c2[nH]1 [Compound 493] | 90 | 100 | 80 | 100 | 90 | 70 | 75 | 80 | 100 | 100 | 100 | 100 | 70 | 100 | 100 | 65 | 60 | 100 | 100 | 95
2 | CNC(=O)OCCc1cc2c(Cl)cc(F)c(-n3c(=O)cc(C(F)(F)F)n(C)c3=O)c2o1 [Compound 261] | 95 | 100 | 100 | 100 | 100 | 80 | 80 | 100 | 100 | 100 | 100 | 100 | 90 | 100 | 100 | 100 | 80 | 100 | 100 | 95
3 | Cn1c(C(F)(F)F)cc(=O)n(-c2c(F)cc(Cl)c3[nH]c(C4CCCCC4)nc23)c1=O [Compound 373] | 90 | 100 | 100 | 100 | 100 | 70 | 70 | 100 | 100 | 100 | 100 | 100 | 100 | 100 | 100 | 100 | 80 | 90 | 100 | 100
4 | CC(C)c1nc2c(-n3c(=O)cc(C(F)(F)F)n(C)c3=O)c(F)cc(Cl)c2[nH]1 [Compound 368] | 95 | 100 | 100 | 100 | 100 | 100 | 95 | 100 | 100 | 100 | 100 | 100 | 100 | 100 | 100 | 100 | 100 | 100 | 100 | 100
